Earlier results in US5948887A, “Polypeptides that include conformation-constraining groups which flank a protein--protein interaction site” (Virginia Commonwealth University, priority 1997, dated 1999).
Where a SMILES comes first, the peptide text is derived from it.

Test system: receptors of sweet tasting papillae
Details: comparison value

times sweeter than sugar: 160 times
Structure (SMILES): COC(=O)[C@H](Cc1ccccc1)NC(=O)[C@@H](N)CC(=O)O [aspartame] (H-Asp-Phe-OMe)
